Consider three compounds from ChEMBL document CHEMBL4819006, “1,4,6-Trisubstituted imidazo[4,5-c]pyridines as inhibitors of Bruton's tyrosine kinase” (Eur J Med Chem, 2021).

Active and inactive are the calls of the source. The rule behind the calls is not given here.

The target in experiment [1] is T1, Mitogen-activated protein kinase; ERK1/ERK2 (Homo sapiens) (UniProt P27361+P28482). As to the kind of experiment: Inhibition of ERK1/2 in human UPF7U cells assessed as reduction in ERK1/2 phosphorylation at 0.125 to 1 uM measured after 24 hrs by western blot assay. The experiment is classed as cell-based. Conditions: dose 0.125-1 µM.
The target of experiment [2] is T1, Mitogen-activated protein kinase; ERK1/ERK2 (Homo sapiens). Nature of the experiment: Inhibition of ERK1/2 in human Ramos cells assessed as reduction in ERK1/2 phosphorylation at 0.125 to 1 uM measured after 24 hrs by western blot assay. The following applies: dose 0.125-1 µM. The experiment is classed as cell-based.
Experiment [3] concerns the target Proto-oncogene tyrosine-protein kinase Src (Homo sapiens) (UniProt P12931). As to the kind of experiment: Inhibition of recombinant SRC (unknown origin) assessed as residual activity at 1 uM.
Experiment [4] concerns the target Tyrosine-protein kinase ABL1 (Homo sapiens) (UniProt P00519). As to the kind of experiment: Inhibition of Abl (unknown origin) expressed in Sf9 cells assessed as residual activity using GGEAIYAAPFKK peptide as substrate in presence of ATP and Ci(gamma33-P)ATP at 1 uM measured by microplate reader.
Experiment [5] can be described thus: Growth inhibition of human patient derived UPF7U cells assessed as inhibition of cell growth measured after 72 hrs by resazurin dye based assay. The experiment is classed as functional. The following applies: Homo sapiens, UPF7U. Background: Alamar Blue is a resazurin reagent that responds to reducing activity.
Experiment [6] has as its target Cyclin-dependent kinase 2 (Homo sapiens) (UniProt P24941). Nature of the experiment: Inhibition of GST-tagged CDK2/cyclinE (unknown origin) expressed in Sf9 cells assessed as residual activity using histone H1 as substrate in presence of ATP and Ci(gamma33-P) ATP at 1 uM measured by microplate reader assay.
For experiment [7], the system named is Ramos. As to the kind of experiment: Growth inhibition of human Ramos cells assessed as inhibition of cell growth measured after 72 hrs by resazurin dye based assay. The experiment is classed as functional. Conditions: Homo sapiens, Ramos.
In experiment [8] the target is T2, Tyrosine-protein kinase BTK (Homo sapiens, UniProt Q06187). As to the kind of experiment: Inhibition of BTK in human Ramos cells assessed as reduction of IgM stimulated BTK phosphorylation measured after 24 hrs by western blot assay. Conditions: dose 0.125-1 µM. In kind it is cell-based. Background: Immunoblotting shows a protein as a band on a membrane.
Experiment [9] addresses T2, Tyrosine-protein kinase BTK. Nature of the experiment: Inhibition of BTK in human UPF7U cells assessed as reduction of IgM stimulated PLCgamma1 (Y783) phosphorylation at 0.125 to 1 uM measured after 24 hrs by western blot assay relative to Ibrutinib. The experiment is classed as cell-based. Conditions: dose 0.125-1 µM.
Experiment [10] shares this target. Nature of the experiment: Inhibition of human BTK using poly (Glu,Tyr) as substrate in presence of ATP and Ci(gamma33-P) ATP measured by microplate reader assay.
Experiment [11] has the same target. Nature of the experiment: Inhibition of BTK in human UPF7U cells assessed as reduction of IgM stimulated BTK phosphorylation measured after 24 hrs by western blot assay. In kind it is cell-based. Conditions: dose 0.125-1 µM.
Experiment [12] concerns the target Tyrosine-protein kinase Lck (Homo sapiens) (UniProt P06239). As to the kind of experiment: Inhibition of recombinant LCK (unknown origin) assessed as residual activity at 1 uM.
The target of experiment [13] is T2, Tyrosine-protein kinase BTK. As to the kind of experiment: Inhibition of BTK in human Ramos cells assessed as reduction of IgM stimulated PLCgamma1 (Y783) phosphorylation at 0.125 to 1 uM measured after 24 hrs by western blot assay relative to Ibrutinib. In kind it is cell-based. Conditions: dose 0.125-1 µM.
The target in experiment [14] is Tyrosine-protein kinase Fyn (Homo sapiens) (UniProt P06241). Nature of the experiment: Inhibition of human recombinant full length GST-tagged FYN (M1 to L537 residues) assessed as residual activity using poly (Glu,Tyr) as substrate in presence of ATP and Ci(gamma33-P) ATP at 1 uM measured by microplate reader assay.
In experiment [15] the test system is Rec1. Nature of the experiment: Growth inhibition of human REC1 cells assessed as inhibition of cell growth measured after 72 hrs by resazurin dye based assay. The experiment is classed as functional. Conditions: Homo sapiens, Rec1.
In experiment [16] the target is T2, Tyrosine-protein kinase BTK. Nature of the experiment: Inhibition of human BTK assessed as residual activity using poly (Glu,Tyr) as substrate in presence of ATP and Ci(gamma33-P) ATP at 1 uM measured by microplate reader assay.
Experiment [17] shares this target. As to the kind of experiment: Inhibition of BTK in human UPF7U cells assessed as reduction of IgM stimulated PLCgamma2 (Y1217) phosphorylation at 0.125 to 1 uM measured after 24 hrs by western blot assay relative to Ibrutinib. The experiment is classed as cell-based. Conditions: dose 0.125-1 µM.
Experiment [18] has the same target. Nature of the experiment: Inhibition of BTK in human Ramos cells assessed as reduction of IgM stimulated PLCgamma2 (Y1217) phosphorylation at 0.125 to 1 uM measured after 24 hrs by western blot assay relative to Ibrutinib. The experiment is classed as cell-based. Conditions: dose 0.125-1 µM.
Experiment [19] is described as follows: Growth inhibition of human patient derived UPF1H cells assessed as inhibition of cell growth measured after 72 hrs by resazurin dye based assay. In kind it is functional. Conditions: Homo sapiens, UPF1H.
Experiment [20] deals with Tyrosine-protein kinase SYK (Homo sapiens) (UniProt P43405). As to the kind of experiment: Inhibition of human recombinant GST-tagged SYK (M1 to N635 residues) assessed as residual activity using poly (Glu,Tyr) as substrate in presence of ATP and Ci(gamma33-P) ATP at 1 uM measured by microplate reader assay.
Experiment [21] concerns K562. Nature of the experiment: Growth inhibition of human K562 cells assessed as inhibition of cell growth measured after 72 hrs by resazurin dye based assay. The experiment is classed as functional. Conditions: Homo sapiens, K562.
In experiment [22] the target is Receptor-type tyrosine-protein kinase FLT3 (Homo sapiens) (UniProt P36888). Nature of the experiment: Inhibition of human recombinant […] N-terminal GST-tagged FLT3 (R571 to S993 residues) assessed as residual activity using poly (Ala, Glu, Lys, Tyr) hydrobromide as substrate in presence of ATP and Ci(gamma33-P) ATP at 1 uM measured by microplate reader assay.

Experiment [23] deals with T2, Tyrosine-protein kinase BTK. As to the kind of experiment: Inhibition of BTK in human Ramos cells assessed as reduction of IgM stimulated BTK ([…]) phosphorylation at 1 to 5 uM measured after 24 hrs by western blot assay. The following applies: dose 1-5 µM. The experiment is classed as cell-based.
The target is the same in experiment [24]. As to the kind of experiment: Inhibition of BTK in human Ramos cells assessed as reduction of IgM stimulated PLCgamma2 (Y1217) phosphorylation at 1 to 5 uM measured after 24 hrs by western blot assay. In kind it is cell-based. The following applies: dose 1-5 µM.
Experiment [25] deals with T1, Mitogen-activated protein kinase; ERK1/ERK2 (Homo sapiens). Nature of the experiment: Inhibition of ERK1/2 in human Ramos cells assessed as reduction in ERK1/2 phosphorylation at 1 to 5 uM measured after 24 hrs by western blot assay. The experiment is classed as cell-based. Conditions: dose 1-5 µM.

T2 sequence (Q06187 whole entry): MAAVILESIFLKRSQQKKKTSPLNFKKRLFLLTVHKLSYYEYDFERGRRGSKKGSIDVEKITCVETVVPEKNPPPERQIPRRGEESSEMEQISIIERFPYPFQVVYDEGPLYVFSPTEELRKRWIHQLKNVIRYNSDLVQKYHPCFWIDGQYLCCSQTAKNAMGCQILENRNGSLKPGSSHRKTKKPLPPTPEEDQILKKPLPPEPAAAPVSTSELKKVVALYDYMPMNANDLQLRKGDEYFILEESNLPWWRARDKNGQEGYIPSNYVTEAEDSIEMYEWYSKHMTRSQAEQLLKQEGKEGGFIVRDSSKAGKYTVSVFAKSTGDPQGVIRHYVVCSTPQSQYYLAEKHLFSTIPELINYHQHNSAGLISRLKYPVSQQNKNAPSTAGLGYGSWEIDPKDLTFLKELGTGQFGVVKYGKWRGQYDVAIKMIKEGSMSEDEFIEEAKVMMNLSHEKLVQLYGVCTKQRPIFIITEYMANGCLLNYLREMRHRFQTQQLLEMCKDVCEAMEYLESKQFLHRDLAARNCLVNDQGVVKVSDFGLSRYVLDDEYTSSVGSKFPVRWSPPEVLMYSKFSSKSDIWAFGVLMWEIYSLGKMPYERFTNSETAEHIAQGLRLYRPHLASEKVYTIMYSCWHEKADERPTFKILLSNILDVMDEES
T1 sequence (P27361 whole entry, looked up): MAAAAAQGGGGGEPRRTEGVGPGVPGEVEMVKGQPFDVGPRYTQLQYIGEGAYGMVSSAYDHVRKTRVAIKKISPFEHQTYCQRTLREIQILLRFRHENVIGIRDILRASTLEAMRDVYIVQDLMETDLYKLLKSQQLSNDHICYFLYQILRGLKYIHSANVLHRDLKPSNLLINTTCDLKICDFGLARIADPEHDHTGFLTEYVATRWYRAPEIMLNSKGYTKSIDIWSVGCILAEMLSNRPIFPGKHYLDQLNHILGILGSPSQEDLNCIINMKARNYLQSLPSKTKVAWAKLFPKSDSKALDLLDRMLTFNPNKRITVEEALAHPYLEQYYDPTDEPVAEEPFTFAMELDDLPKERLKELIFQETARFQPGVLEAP
T1 sequence (P28482 whole entry, looked up): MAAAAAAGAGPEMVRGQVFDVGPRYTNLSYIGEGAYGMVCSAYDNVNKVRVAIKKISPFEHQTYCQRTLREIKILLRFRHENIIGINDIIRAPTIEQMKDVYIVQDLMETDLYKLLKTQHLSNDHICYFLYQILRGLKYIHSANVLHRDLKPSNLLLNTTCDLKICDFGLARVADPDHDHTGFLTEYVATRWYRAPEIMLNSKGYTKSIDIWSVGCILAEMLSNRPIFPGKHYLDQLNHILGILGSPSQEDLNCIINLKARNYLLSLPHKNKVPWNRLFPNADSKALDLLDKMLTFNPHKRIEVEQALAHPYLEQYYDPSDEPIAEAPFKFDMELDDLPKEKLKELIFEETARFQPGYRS
Tyrosine-protein kinase Fyn (Homo sapiens), sequence (P06241 2-537 limits assumed): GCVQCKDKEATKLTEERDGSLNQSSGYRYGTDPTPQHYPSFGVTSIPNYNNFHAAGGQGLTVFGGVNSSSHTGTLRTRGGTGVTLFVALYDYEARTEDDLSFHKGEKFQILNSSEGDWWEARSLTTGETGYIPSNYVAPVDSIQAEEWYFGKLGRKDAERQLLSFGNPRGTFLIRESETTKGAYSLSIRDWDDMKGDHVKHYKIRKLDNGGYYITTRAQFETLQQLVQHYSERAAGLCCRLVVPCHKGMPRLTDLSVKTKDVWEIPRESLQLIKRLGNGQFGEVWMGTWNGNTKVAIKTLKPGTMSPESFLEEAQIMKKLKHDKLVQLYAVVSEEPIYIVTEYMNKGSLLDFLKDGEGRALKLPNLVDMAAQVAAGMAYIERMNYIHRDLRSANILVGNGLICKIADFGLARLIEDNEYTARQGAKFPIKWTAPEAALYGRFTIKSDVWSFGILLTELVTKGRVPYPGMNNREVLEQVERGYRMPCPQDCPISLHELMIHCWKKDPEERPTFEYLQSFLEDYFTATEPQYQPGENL
Receptor-type tyrosine-protein kinase FLT3 (Homo sapiens), sequence (P36888 whole entry, the tested form may be a part): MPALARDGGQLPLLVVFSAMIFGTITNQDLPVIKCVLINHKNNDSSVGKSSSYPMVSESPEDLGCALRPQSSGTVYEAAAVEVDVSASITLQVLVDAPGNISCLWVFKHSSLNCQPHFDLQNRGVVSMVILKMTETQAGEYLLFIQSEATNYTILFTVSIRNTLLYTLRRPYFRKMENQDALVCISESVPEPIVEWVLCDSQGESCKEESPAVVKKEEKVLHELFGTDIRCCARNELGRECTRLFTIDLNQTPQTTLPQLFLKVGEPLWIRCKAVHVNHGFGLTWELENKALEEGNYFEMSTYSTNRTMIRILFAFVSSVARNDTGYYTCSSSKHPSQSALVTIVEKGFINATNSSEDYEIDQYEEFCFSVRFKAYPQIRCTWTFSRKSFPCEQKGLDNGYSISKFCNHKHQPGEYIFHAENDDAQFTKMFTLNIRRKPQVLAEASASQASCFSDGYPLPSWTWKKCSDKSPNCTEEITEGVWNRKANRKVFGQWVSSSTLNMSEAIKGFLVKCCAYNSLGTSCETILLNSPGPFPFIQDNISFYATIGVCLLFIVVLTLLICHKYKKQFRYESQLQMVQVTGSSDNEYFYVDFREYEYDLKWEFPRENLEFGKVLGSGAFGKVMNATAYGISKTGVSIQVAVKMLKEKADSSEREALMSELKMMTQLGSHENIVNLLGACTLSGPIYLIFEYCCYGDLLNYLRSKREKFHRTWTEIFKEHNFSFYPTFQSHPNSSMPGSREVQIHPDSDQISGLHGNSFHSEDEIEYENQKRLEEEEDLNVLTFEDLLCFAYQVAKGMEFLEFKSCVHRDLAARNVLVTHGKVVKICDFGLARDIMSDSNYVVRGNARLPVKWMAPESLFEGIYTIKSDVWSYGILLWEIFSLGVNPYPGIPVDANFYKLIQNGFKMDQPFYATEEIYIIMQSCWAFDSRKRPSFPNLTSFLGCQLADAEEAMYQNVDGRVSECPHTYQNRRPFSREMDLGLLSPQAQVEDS
Tyrosine-protein kinase ABL1 (Homo sapiens), sequence (P00519 whole entry): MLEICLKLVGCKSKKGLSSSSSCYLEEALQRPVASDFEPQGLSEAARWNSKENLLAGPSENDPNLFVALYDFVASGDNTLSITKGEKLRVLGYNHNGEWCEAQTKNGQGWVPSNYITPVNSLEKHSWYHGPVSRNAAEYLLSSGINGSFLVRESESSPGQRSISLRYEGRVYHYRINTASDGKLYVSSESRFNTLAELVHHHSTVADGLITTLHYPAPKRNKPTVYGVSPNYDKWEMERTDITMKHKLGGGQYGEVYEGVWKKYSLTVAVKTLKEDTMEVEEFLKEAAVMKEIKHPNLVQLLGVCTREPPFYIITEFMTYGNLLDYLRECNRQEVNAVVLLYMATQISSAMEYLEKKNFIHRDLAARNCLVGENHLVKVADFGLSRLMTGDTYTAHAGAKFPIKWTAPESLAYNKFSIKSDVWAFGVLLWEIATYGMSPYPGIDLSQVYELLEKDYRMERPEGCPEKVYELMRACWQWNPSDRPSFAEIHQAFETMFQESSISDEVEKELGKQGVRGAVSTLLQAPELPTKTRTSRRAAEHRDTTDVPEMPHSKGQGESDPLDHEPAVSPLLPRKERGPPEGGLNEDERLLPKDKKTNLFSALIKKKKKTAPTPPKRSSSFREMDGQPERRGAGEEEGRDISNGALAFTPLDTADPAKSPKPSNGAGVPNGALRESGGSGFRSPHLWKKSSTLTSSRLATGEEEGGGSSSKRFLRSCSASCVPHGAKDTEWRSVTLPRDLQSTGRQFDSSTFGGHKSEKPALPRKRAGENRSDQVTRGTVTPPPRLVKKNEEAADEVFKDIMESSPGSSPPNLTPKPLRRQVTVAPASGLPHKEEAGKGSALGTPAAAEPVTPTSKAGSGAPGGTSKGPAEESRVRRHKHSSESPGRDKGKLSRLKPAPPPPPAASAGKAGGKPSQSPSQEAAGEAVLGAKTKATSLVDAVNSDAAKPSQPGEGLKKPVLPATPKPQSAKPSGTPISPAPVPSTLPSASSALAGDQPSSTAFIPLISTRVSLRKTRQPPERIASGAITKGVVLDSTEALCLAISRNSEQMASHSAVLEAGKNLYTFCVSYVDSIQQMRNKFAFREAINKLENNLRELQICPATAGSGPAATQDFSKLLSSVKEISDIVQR
Tyrosine-protein kinase Lck (Homo sapiens), sequence (P06239 2-509 limits assumed): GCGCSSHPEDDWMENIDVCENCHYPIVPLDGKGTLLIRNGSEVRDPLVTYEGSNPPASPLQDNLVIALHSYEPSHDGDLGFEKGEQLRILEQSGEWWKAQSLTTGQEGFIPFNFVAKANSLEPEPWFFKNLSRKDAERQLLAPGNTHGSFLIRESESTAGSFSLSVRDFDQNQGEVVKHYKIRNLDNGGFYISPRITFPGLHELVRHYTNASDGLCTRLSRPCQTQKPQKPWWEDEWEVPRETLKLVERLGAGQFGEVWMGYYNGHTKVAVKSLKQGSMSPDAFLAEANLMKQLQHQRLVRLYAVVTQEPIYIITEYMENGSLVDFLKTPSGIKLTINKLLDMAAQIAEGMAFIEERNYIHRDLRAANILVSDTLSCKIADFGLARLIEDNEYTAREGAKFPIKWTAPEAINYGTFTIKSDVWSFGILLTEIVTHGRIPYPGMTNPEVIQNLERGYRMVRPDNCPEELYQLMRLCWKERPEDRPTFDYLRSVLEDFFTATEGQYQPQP

On to `c1cn2cc(-c3ccc4cn[nH]c4c3)nc(Nc3ccc(N4CCOCC4)cc3)c2n1`, for which the inhibition result in experiment [1] and in experiment [2] was “Active” each time.

As for `CC(C)(C)c1ccc(C(=O)Nc2cccc(-c3cc4[nH]cnc4c(Nc4ccc(C(=O)N5CCOCC5)cc4)n3)c2)cc1`, the inhibition entry in experiment [3], in [9], in experiment [12], in [13], in experiment [17] and in experiment [18] was “Active” each time. For the same compound, the Activity in [4] was 95.9%; in [6], 98.7%; in experiment [14] it was 86.4%; in experiment [16], 14.7%; in experiment [20], 71.4%; in experiment [22] it was greater than 100%. In addition, the 50% growth inhibitory concentration (GI50) in experiment [5] amounted to 5.5 µM; in experiment [7], 1.2 µM; in experiment [15], 6 µM; in [19] it was 1 µM; in [21], 2.3 µM. In addition, the inhibition result in experiment [8] and in experiment [11] was “Dose-Dependent Effect” throughout. In addition, the IC50 in experiment [10] was determined as 0.027 µM.

In the case of `Cc1c(NC(=O)c2ccc(C(C)(C)C)cc2)cccc1-c1cc2[nH]cnc2c(Nc2ccc(C(=O)N3CCOCC3)cc2)n1`, the Activity is greater than 100% in experiment [4]; 92.1% in [6]; 80.6% in experiment [14]; 18.4% in experiment [16]; 80.3% in [20]; 51.9% in experiment [22]. The GI50 amounted to 20.6 µM in [5]; 16.5 µM in experiment [7]; 24 µM in experiment [15]; 12.2 µM in experiment [19]; 32.7 µM in [21]. Besides, the inhibition result in [23] and in [24] was “Active” throughout. Besides, the IC50 in experiment [10] was 0.025 µM. The inhibition entry in experiment [25] is “inactive”.

One may read the GI50 as the concentration giving 50% growth inhibition. A word on the IC50: it is the concentration that gives 50% inhibition.
